One test addresses HDAC6 human recombinant (Homo sapiens (Human), UniProt Q9UBN7). The test can be described thus: HDAC6 enzyme activity inhibition assay (fluorimetric). Particulars: test substance 0.1-1000 nM; 37° C. 60 minutes, developer 30 minutes; fluorescence Ex 390, Em 460. The class given is biochemical. On the procedure:
(§1) The HDAC enzyme inhibition ability of the test substance was measured using the HDAC1 Fluorimetric Drug Discovery Assay Kit (Enzo life sciences: BML-AK511) and the HDAC6 human recombinant (Calbiochem: 382180). In the HDAC1 assay, the test substance was treated at concentrations of 100, 1000, and 10000 nM, and in the HDAC6 assay, the test substance was treated at concentrations of 0.1, 1, 10, 100, and 1000 nM. After sample treatment, the samples were reacted at 37° C. for 60 minutes, followed by reaction at 37° C. for 30 minutes by treatment with a developer, and fluorescence intensities (Ex 390, Em 460) thereof were measured using FlexStatin3 (Molecular device).

A further test addresses HDAC1 (Homo sapiens (Human), UniProt Q13547). The test can be described thus: HDAC1 enzyme activity inhibition assay (HDAC1 Fluorimetric Drug Discovery Assay Kit). The class given is biochemical. The conditions noted are these: test substance 100, 1000, 10000 nM; 37° C. 60 minutes, developer 30 minutes; fluorescence Ex 390, Em 460. The method, then:
as §1

The structures appear in SMILES notation.

Chain of HDAC6 human recombinant (Q9UBN7 whole entry): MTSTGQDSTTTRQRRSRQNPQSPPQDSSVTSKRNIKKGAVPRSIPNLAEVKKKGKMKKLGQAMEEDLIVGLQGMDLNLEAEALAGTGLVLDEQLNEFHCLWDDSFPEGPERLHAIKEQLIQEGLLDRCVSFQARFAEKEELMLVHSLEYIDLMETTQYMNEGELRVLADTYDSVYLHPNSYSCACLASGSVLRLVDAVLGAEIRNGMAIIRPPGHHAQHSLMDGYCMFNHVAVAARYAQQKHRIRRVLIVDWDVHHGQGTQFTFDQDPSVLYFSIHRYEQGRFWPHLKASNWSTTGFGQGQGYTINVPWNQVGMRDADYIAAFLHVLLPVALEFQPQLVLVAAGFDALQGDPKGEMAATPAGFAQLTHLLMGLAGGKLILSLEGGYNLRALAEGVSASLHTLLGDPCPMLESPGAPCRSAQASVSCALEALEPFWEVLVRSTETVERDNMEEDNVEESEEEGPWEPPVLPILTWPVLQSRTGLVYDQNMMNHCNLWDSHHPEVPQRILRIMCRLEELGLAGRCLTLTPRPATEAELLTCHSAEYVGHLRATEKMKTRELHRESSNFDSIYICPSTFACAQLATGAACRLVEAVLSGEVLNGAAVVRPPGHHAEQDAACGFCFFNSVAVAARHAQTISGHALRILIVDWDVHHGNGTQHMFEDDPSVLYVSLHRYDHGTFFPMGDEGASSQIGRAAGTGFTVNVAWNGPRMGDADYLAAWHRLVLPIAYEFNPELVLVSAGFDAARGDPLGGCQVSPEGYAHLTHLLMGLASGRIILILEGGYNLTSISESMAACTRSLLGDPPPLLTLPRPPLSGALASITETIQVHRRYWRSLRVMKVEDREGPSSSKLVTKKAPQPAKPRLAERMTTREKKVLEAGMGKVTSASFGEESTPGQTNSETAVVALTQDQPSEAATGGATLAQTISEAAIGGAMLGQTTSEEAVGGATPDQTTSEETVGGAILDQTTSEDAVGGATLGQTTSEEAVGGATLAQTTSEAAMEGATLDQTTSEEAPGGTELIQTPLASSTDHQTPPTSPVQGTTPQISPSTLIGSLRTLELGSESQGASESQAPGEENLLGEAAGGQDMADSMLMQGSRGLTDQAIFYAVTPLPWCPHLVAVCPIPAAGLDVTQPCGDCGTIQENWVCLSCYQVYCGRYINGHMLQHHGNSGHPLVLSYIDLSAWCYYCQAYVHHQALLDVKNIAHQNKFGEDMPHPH
Chain of HDAC1 (Q13547 whole entry): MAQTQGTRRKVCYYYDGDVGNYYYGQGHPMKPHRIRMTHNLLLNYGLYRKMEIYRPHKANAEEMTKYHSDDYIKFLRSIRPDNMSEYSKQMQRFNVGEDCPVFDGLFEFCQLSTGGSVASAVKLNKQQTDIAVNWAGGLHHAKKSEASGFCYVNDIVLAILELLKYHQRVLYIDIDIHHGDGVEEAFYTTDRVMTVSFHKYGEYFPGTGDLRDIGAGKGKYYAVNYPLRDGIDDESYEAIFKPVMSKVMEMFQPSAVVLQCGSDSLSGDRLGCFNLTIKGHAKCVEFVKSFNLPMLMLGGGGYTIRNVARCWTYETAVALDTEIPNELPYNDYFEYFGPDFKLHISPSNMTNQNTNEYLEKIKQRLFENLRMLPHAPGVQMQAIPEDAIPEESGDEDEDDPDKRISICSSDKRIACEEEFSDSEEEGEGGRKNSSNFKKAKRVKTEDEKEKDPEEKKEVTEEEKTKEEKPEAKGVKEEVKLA

As usually defined, the IC50 is the point on the concentration scale where inhibition reaches its midpoint. Turning to `CN1CCN(c2c(N(Cc3ccc(-c4nnc(C(F)F)o4)cc3F)c3ccc(F)c(F)c3)c(=O)c2=O)CC1` [Compound 22, 3-((4-(5-(difluoromethyl)-1,3,4-oxadiazol-2-yl)-2-fluorobenzyl)(3,4-difluorophenyl)amino)-4-(4-methylpiperazin-1-yl)cyclobut-3-ene-1,2-dione], the concentration for half-maximal inhibition (IC50) on HDAC6 human recombinant was 64 nM; at HDAC1, > 10 µM.
On to `O=c1c(N(Cc2ccc(-c3nnc(C(F)F)o3)cn2)c2ccccc2)c(N2C[C@@H]3C[C@H]2CN3C2COC2)c1=O` [Compound 17, 3-(((5-(5-(difluoromethyl)-1,3,4-oxadiazol-2-yl)pyridin-2-yl)methyl)(phenyl)amino)-4-((1S,4S)-5-(oxetan-3-yl)-2,5-diazabicyclo[2.2.1]heptan-2-yl)cyclobut-3-ene-1,2-dione], for which the half-maximal inhibitory concentration (IC50) at HDAC6 human recombinant was 43 nM; against HDAC1, > 10 µM.
In the case of `O=c1c(N2CCOCC2)c(N(Cc2ccc(-c3nnc(C(F)F)o3)cc2F)c2ccccc2)c1=O` [Compound 2, 3-((4-(5-(difluoromethyl)-1,3,4-oxadiazol-2-yl)-2-fluorobenzyl)(phenyl)amino)-4-morpholinocyclobut-3-ene-1,2-dione], the IC50 against HDAC1 was > 10 µM.
On to `O=c1c(N2CCS(=O)(=O)CC2)c(N(Cc2ncc(-c3nnc(C(F)F)o3)cc2F)c2ccccc2)c1=O` [Compound 6, 3-(((5-(5-(difluoromethyl)-1,3,4-oxadiazol-2-yl)-3-fluoropyridin-2-yl)methyl)(phenyl)amino)-4-(1,1-dioxidothiomorpholino)cyclobut-3-ene-1,2-dione], for which the IC50 at HDAC1 was > 10 µM.
Same read-out and setting: for `CN1C[C@@H]2C[C@H]1CN2c1c(N(Cc2ccc(-c3nnc(C(F)F)o3)cc2F)c2ccccc2)c(=O)c1=O` [Compound 14, 3-((4-(5-(difluoromethyl)-1,3,4-oxadiazol-2-yl)-2-fluorobenzyl)(phenyl)amino)-4-((1S,4S)-5-methyl-2,5-diazabicyclo[2.2.1]heptan-2-yl)cyclobut-3-ene-1,2-dione] the value was > 10 µM.
Regarding `O=c1c(N2CCN(C3COC3)CC2)c(N(Cc2ccc(-c3nnc(C(F)F)o3)cc2F)c2ccc(F)c(F)c2)c1=O` [Compound 23, 3-((4-(5-(difluoromethyl)-1,3,4-oxadiazol-2-yl)-2-fluorobenzyl)(3,4-difluorophenyl)amino)-4-(4-(oxetan-3-yl)piperazin-1-yl)cyclobut-3-ene-1,2-dione], the values for the IC50 at HDAC6 human recombinant and against HDAC1 were 50 nM and > 10 µM, respectively.
On to `CN1CCN(c2c(N(Cc3ccc(-c4nnc(C(F)F)o4)cc3F)c3cc(F)cc(-c4cccnc4)c3)c(=O)c2=O)CC1` [Compound 8, 3-((4-(5-(difluoromethyl)-1,3,4-oxadiazol-2-yl)-2-fluorobenzyl)(3-fluoro-5-(pyridin-3-yl)phenyl)amino)-4-(4-methylpiperazin-1-yl)cyclobut-3-ene-1,2-dione], for which the IC50 is 35 nM on HDAC6 human recombinant and > 10 µM on HDAC1.
With `CC(C)N1C[C@@H]2C[C@H]1CN2c1c(N(Cc2ccc(-c3nnc(C(F)F)o3)cn2)c2ccccc2)c(=O)c1=O` [Compound 16, 3-(((5-(5-(difluoromethyl)-1,3,4-oxadiazol-2-yl)pyridin-2-yl)methyl)(phenyl)amino)-4-((1S,4S)-5-isopropyl-2,5-diazabicyclo[2.2.1]heptan-2-yl)cyclobut-3-ene-1,2-dione], the half-maximal inhibitory concentration (IC50) on HDAC6 human recombinant was 28 nM; against HDAC1, > 10 µM.
`CN1CC2(C1)CN(c1c(N(Cc3ccc(-c4nnc(C(F)F)o4)cc3)c3ccccc3)c(=O)c1=O)C2` [Compound 11, 3-((4-(5-(difluoromethyl)-1,3,4-oxadiazol-2-yl)benzyl)(phenyl)amino)-4-(6-methyl-2,6-diazaspyro[3.3]heptan-2-yl)cyclobut-3-ene-1,2-dione]: the IC50 at HDAC6 human recombinant was 60 nM; against HDAC1 it was > 10 µM.
On to `CN1CCN(c2c(N(Cc3ccc(-c4nnc(C(F)F)o4)cn3)c3cccc(-c4cccnc4)c3)c(=O)c2=O)CC1` [Compound 18, 3-(((5-(5-(difluoromethyl)-1,3,4-oxadiazol-2-yl)pyridin-2-yl)methyl)(3-(pyridin-3-yl)phenyl)amino)-4-(4-methylpiperazin-1-yl)cyclobut-3-ene-1,2-dione], for which the values for the IC50 on HDAC6 human recombinant and against HDAC1 were 51 nM and > 10 µM, respectively.
Turning to `CN1CCN(c2c(N(Cc3ccc(-c4nnc(C(F)F)o4)cc3F)c3ccccc3)c(=O)c2=O)CC1` [Compound 1, 3-((4-(5-(difluoromethyl)-1,3,4-oxadiazol-2-yl)-2-fluorobenzyl)(phenyl)amino)-4-(4-methylpiperazin-1-yl)cyclobut-3-ene-1,2-dione], the IC50 on HDAC6 human recombinant is 22 nM; against HDAC1, > 10 µM.
`CN1CCN(c2c(N(Cc3ccc(-c4nnc(C(F)F)o4)cc3)c3ccccc3)c(=O)c2=O)CC1` [Compound 4, 3-((4-(5-(difluoromethyl)-1,3,4-oxadiazol-2-yl)benzyl)(phenyl)amino)-4-(4-methylpiperazin-1-yl)cyclobut-3-ene-1,2-dione]: the IC50 at HDAC6 human recombinant is 31 nM; at HDAC1, > 10 µM.
As to `CN1CCN(c2c(N(Cc3ccc(-c4nnc(C(F)F)o4)cc3F)c3cccc(Br)c3)c(=O)c2=O)CC1` [Compound 12, 3-((3-bromophenyl)(4-(5-(difluoromethyl)-1,3,4-oxadiazol-2-yl)-2-fluorobenzyl)amino)-4-(4-methylpiperazin-1-yl)cyclobut-3-ene-1,2-dione], the figures for the IC50 on HDAC6 human recombinant and against HDAC1 were 30 nM and > 10 µM, respectively.
The matching figures for `CN1CCN(c2c(N(Cc3ccc(-c4nnc(C(F)F)o4)cn3)c3cccc(-c4ccncc4)c3)c(=O)c2=O)CC1` [Compound 19, 3-(((5-(5-(difluoromethyl)-1,3,4-oxadiazol-2-yl)pyridin-2-yl)methyl)(3-(pyridin-4-y 1)phenyl)amino)-4-(4-methylpiperazin-1-yl)cyclobut-3-ene-1,2-dione]: 102 nM and > 10 µM.
Consider `O=c1c(N2CCOCC2)c(N(Cc2ccc(-c3nnc(C(F)(F)F)o3)cc2)c2ccccc2)c1=O` [Compound 24, 3-morpholino-4-[N-[[4-[5-(trifluoromethyl)-1,3,4-oxadiazol-2-yl]phenyl]methyl]anilino]cyclobut-3-ene-1,2-dione], for which the IC50 on HDAC6 human recombinant is 161 nM; on HDAC1 it was > 10 µM.
Turning to `CN1CCN(c2c(N(Cc3ccc(-c4nnc(C(F)F)o4)cc3F)c3cc(F)cc(Br)c3)c(=O)c2=O)CC1` [Compound 7, 3-((3-bromo-5-fluorophenyl)(4-(5-(difluoromethyl)-1,3,4-oxadiazol-2-yl)-2-fluorobenzyl)amino)-4-(4-methylpiperazin-1-yl)cyclobut-3-ene-1,2-dione], the IC50 is 36 nM at HDAC6 human recombinant and > 10 µM against HDAC1.
Regarding `O=c1c(N2CCS(=O)(=O)CC2)c(N(Cc2ccc(-c3nnc(C(F)F)o3)cc2F)c2ccccc2)c1=O` [Compound 3, 3-((4-(5-(difluoromethyl)-1,3,4-oxadiazol-2-yl)-2-fluorobenzyl)(phenyl)amino)-4-(1,1-dioxidothiomorpholino)cyclobut-3-ene-1,2-dione], the IC50 on HDAC6 human recombinant was 27 nM; at HDAC1, > 10 µM.
Turning to `O=c1c(N2CC3(C2)CN(C2COC2)C3)c(N(Cc2ccc(-c3nnc(C(F)F)o3)cc2F)c2ccccc2)c1=O` [Compound 10, 3-((4-(5-(difluoromethyl)-1,3,4-oxadiazol-2-yl)-2-fluorobenzyl)(phenyl)amino)-4-(6-(oxetan-3-yl)-2,6-diazaspiro[3.3]heptan-2-yl)cyclobut-3-ene-1,2-dione], the IC50 was 56 nM at HDAC6 human recombinant and > 10 µM against HDAC1.
Take `O=c1c(N2CCS(=O)(=O)CC2)c(N(Cc2ccc(-c3nnc(C(F)F)o3)cc2)c2ccccc2)c1=O` [Compound 5, 3-((4-(5-(difluoromethyl)-1,3,4-oxadiazol-2-yl)benzyl)(phenyl)amino)-4-(1,1-dioxidothiomorpholino)cyclobut-3-ene-1,2-dione]: the 50% inhibitory concentration (IC50) is 29 nM at HDAC6 human recombinant and > 10 µM at HDAC1.
`O=c1c(N(Cc2ccc(-c3nnc(C(F)F)o3)cc2F)c2ccccc2)c(N2C[C@@H]3C[C@H]2CN3C2COC2)c1=O` [Compound 13, 3-((4-(5-(difluoromethyl)-1,3,4-oxadiazol-2-yl)-2-fluorobenzyl)(phenyl)amino)-4-((1S,4S)-5-(oxetan-3-yl)-2,5-diazabicyclo[2.2.1]heptan-2-yl)cyclobut-3-ene-1,2-dione]: the concentration for half-maximal inhibition (IC50) was 24 nM at HDAC6 human recombinant and > 10 µM against HDAC1.
On to `O=c1c(N(Cc2ncc(-c3nnc(C(F)F)o3)cc2F)c2ccccc2)c(N2C[C@@H]3C[C@H]2CN3C2COC2)c1=O` [Compound 21, 3-(((5-(5-(difluoromethyl)-1,3,4-oxadiazol-2-yl)-3-fluoropyridin-2-yl)methyl)(phenyl)amino)-4-((1S,4S)-5-(oxetan-3-yl)-2,5-diazabicyclo[2.2.1]heptan-2-yl)cyclobut-3-ene-1,2-dione], for which the half-inhibitory concentration (IC50) on HDAC1 was > 10 µM.
Regarding `CN1C[C@@H]2C[C@H]1CN2c1c(N(Cc2ncc(-c3nnc(C(F)F)o3)cc2F)c2ccccc2)c(=O)c1=O` [Compound 20, 3-(((5-(5-(difluoromethyl)-1,3,4-oxadiazol-2-yl)-3-fluoropyridin-2-yl)methyl)(phenyl)amino)-4-((1S,4S)-5-methyl-2,5-diazabicyclo[2.2.1]heptan-2-yl)cyclobut-3-ene-1,2-dione], the IC50 against HDAC1 is > 10 µM.

Source of the values: patent US20260028321A1, “1,3,4-OXADIAZOLE DERIVATIVE COMPOUNDS AS HISTONE DEACETYLASE 6 INHIBITOR, AND USES THEREOF” (CHONG KUN DANG PHARMACEUTICAL CORP., priority 2022, published 2026).
